Test results: paper PMC6862662, “In Vitro Evaluation and Docking Studies of 5-oxo-5H-furo[3,2-g]chromene-6-carbaldehyde Derivatives as Potential Anti-Alzheimer’s Agents” (International Journal of Molecular Sciences, 2019)
Counter-ions that a name gives are not always drawn.

Assays:
[1] = DPPH radical scavenging activity assay; settings: triplicate, preliminary
Experimental: DPPH radical scavenging activity of compounds 2b, 2f, 3b, 3d and 3f was evaluated following the literature method. Ascorbic acid (Sigma Aldrich, Saint Louis, Missouri, USA) was used as a positive control. The test compounds and controls at various concentrations ranging from (0 µM to 40 µM) in DMSO were mixed with a solution of DPPH (0.20 mM) in methanol. The mixtures were incubated in the dark for 45 min and the absorbances were recorded at 512 nm using Varioskan flash microplate spectrophotometer reader. All tests and analyses were run in triplicate and averaged. The inhibition was calculated in terms of percentage using the formula below:(5) DPPH radical scavenged (%)=AbC−AbS/AbC×100, where AbC is absorbance of control and AbS the absorbance of the test sample.

[2] = target: T1, BChE (Homo sapiens, UniProt P06276); assay: biochemical; settings: for IC50: Ellman's method, triplicate; for SI AChE/BChE: Selectivity index IC50 (AChE)/IC50 (BChE)
T1 construct: purchased cloud-clone corp., purchased through BIOCOM Africa (Pty) Ltd. RPC348Hu0 2_100
Experimental: The mixtures were incubated for 15 min at RT. The reaction was initiated by adding of 10 µL of mixture solution of 5 mM 5,50-dithio-bis-nitrobenzoic acid (DTNB) in 50 mM tris buffer (pH 7.7) and 10 µL acetylthiocholine (ASCh; 5 mM) in 50 mM tris buffer, pH 7.7 into the wells containing the mixtures. The hydrolysis of ASCh was determined by monitoring the formation of the yellow 5-thio-2-nitrobenzoate anion resulting from reaction of DTNB with thiocholines (SCh).
The IC50 values were determined graphically from inhibition curves (inhibitor concentration and absorbance) using the graph pad prism.

[3] = target: T2, AChE (Homo sapiens, UniProt P22303); assay: biochemical; settings: for IC50: Ellman's method, triplicate, read-out: IC50 (µM) AChE; for SI BChE/AChE: Selectivity index IC50 (BChE)/IC50 (AChE)
T2 construct: purchased BL, purchased through BIOCOM Africa (Pty) Ltd. 768104

[4] = target: T2, AChE; assay: Kinetic studies against AChE (Lineweaver–Burk and Dixon plots); assay type: biochemical; settings: for Ki: Dixon plots; for mode of inhibition against AChE: Lineweaver–Burk and Dixon plots
Experimental: (§1) Compounds 2f, 2b, 2f, 3b, 3d and 3f were selected for the kinetic studies with substrate concentrations 0.1, 0.5, 2. 5 and 5 µM for ChEs following procedures described in our previous investigation. The Lineweaver–Burk plots (plots of the inverse of velocity (1/v) against the inverse of the substrate concentration (1/[S])) were used to ascertain the mode of inhibition of these compounds.

[5] = target: T3, human recombinant BACE-1 (Homo sapiens, UniProt P56817); assay: β-secretase FRET inhibitory assay; assay type: biochemical; settings: triplicate
T3 construct: purchased Pan Vera; host or cells: baculovirus-expressed

[6] = target: T1, BChE; assay: Kinetic studies against BChE (Lineweaver–Burk and Dixon plots); assay type: biochemical; settings: for Ki: Dixon plots; for mode of inhibition against BChE: Lineweaver–Burk and Dixon plots
Experimental: as §1

[7] = tested on: breast cancer cell line MCF-7; assay: MTT cytotoxicity assay, MCF-7; assay type: cell-based; settings: Homo sapiens, MCF7, 24 h, read-out: IC50 against MCF-7 cancer cell line
Experimental: Briefly, the cells were seeded in 96-well plate at a density of 20 × 10^3 cells per well and then incubated at 37 °C in 5% CO2 to allow cell attachment. […] An equal volume of medium was used as the control treatment. After treatment for 24 h, 10 μL MTT (5 mg/mL) was added to each well and the plate was further incubated for 4 h later. The supernatant was removed and 100 μL of DMSO was added to each well to dissolve the resulting formazan crystals. The absorbance was read at 570 nm using the Varioskan flash microplate spectrophotometer reader. The percentages of cell viability were used to determine the IC50 values.

T2 sequence (P22303 32-614): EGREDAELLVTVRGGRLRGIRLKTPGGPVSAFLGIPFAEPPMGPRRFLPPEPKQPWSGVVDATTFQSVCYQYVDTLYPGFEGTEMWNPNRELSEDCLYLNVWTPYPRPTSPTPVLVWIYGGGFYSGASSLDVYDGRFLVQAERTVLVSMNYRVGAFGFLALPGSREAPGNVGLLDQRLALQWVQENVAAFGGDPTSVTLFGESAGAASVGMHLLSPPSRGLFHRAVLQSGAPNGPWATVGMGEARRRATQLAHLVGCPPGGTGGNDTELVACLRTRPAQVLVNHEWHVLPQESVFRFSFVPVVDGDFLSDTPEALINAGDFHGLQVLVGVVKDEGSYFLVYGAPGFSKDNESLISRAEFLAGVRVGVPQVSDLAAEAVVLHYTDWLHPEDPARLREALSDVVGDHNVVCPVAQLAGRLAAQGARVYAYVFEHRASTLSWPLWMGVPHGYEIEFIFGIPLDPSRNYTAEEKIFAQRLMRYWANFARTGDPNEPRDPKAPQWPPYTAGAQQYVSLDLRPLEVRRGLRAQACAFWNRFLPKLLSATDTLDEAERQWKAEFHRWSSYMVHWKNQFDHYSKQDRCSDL
T3 sequence (P56817 46-501): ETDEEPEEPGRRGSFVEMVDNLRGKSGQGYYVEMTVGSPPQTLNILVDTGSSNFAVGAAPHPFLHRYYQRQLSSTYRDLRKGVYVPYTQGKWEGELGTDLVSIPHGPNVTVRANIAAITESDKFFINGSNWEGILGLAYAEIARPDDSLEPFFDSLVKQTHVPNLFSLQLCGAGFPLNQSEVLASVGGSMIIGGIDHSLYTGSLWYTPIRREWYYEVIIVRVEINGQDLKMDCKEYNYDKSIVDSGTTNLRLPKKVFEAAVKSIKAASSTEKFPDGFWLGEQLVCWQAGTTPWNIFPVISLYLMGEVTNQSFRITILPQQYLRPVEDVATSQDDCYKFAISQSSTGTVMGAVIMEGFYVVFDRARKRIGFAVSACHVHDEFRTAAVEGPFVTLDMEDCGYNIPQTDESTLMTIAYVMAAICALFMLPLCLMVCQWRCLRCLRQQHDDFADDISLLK
T1 sequence (P06276 29-602): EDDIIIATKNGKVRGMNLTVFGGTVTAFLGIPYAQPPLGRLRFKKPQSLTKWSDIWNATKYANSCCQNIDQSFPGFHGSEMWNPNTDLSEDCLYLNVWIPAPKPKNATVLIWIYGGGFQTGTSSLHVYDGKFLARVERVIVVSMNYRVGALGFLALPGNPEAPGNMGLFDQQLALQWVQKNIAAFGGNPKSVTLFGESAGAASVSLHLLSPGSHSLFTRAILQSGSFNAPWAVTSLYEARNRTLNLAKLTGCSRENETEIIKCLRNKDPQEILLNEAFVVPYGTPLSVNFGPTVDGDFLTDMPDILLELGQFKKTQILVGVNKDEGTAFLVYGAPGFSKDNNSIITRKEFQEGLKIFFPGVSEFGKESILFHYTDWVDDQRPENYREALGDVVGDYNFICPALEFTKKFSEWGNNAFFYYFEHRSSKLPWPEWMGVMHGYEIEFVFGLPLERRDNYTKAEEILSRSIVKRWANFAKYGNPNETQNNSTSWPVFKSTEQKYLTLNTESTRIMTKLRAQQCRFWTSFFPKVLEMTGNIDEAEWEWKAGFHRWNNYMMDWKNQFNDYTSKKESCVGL

Compound	IC50 [1] [µM]	IC50 [2] [µM]	SI AChE/BChE [2]	IC50 [3] [µM]	SI BChE/AChE [3]	Ki [4] [µM]	mode of inhibition against AChE [4]	IC50 [5] [µM]	Ki [6] [µM]	mode of inhibition against BChE [6]	Vmax against BChE ([6]; Lineweaver–Burk plots, substrate 0–5 µM)	IC50 [7] [µM]
O=C1O[C@H]([C@@H](O)CO)C(O)=C1O [Ascorbic acid, reference compound]	4.8 ± 0.01	–	–	–	–	–	–	–	–	–	–	–
O=Cc1coc2cc3oc(-c4ccccc4)cc3cc2c1=O [Compound 2a, 5-Oxo-2-phenyl-5H-furo[3,2-g]chromene-6-carbaldehyde]	–	12.3 ± 0.02	2.33	28.6 ± 0.01	0.43	–	–	–	–	–	–	–
O=Cc1coc2cc3oc(-c4cccc(F)c4)cc3cc2c1=O [Compound 2b, 2-(3-Fluorophenyl)-5-oxo-5H-furo[3,2-g]chromene-6-carbaldehyde]	7.4 ± 0.01	6.4 ± 0.04	0.84	5.4 ± 0.05	1.19	1.1 ± 0.02	non-competitive	21.6 ± 0.01	1.7 ± 0.01	non-competitive	–	–
O=Cc1coc2cc3oc(-c4ccc(F)cc4)cc3cc2c1=O [Compound 2c, 2-(4-Fluorophenyl)-5-oxo-5H-furo[3,2-g]chromene-6-carbaldehyde]	–	15.7 ± 0.02	0.97	15.3 ± 0.01	1.03	–	–	–	–	–	–	–
O=Cc1coc2cc3oc(-c4cccc(Cl)c4)cc3cc2c1=O [Compound 2d, 2-(3-Chlorophenyl)-5-oxo-5H-furo[3,2-g]chromene-6-carbaldehyde]	–	21.6 ± 0.01	1.54	33.4 ± 0.03	0.65	–	–	–	–	–	–	–
O=Cc1coc2cc3oc(-c4ccc(Cl)cc4)cc3cc2c1=O [Compound 2e, 2-(4-Chlorophenyl)-5-oxo-5H-furo[3,2-g]chromene-6-carbaldehyde]	–	14 ± 0.04	1.61	21.8 ± 0.03	–	–	–	–	–	–	–	–
COc1cc(OC)cc(-c2cc3cc4c(=O)c(C=O)coc4cc3o2)c1 [Compound 2g, 2-(3,5-Dimethoxyphenyl)-5-oxo-5H-furo[3,2-g]chromene-6-carbaldehyde]	–	41.2 ± 0.03	0.26	10.8 ± 0.02	3.81	–	–	–	–	–	–	–
Cc1ccc(-c2cc3cc4c(=O)c(C=O)coc4cc3o2)cc1 [Compound 2h, 5-Oxo-2-(p-tolyl)-5H-furo[3,2-g]chromene-6-carbaldehyde]	–	28.1 ± 0.03	0.46	12.9 ± 0.01	2.18	–	–	–	–	–	–	–
O=Cc1coc2cc3oc(C4=CCCCC4)cc3cc2c1=O [Compound 2i, 2-(Cyclohex-1-en-1-yl)-5-oxo-5H-furo[3,2-g]chromene-6-carbaldehyde]	–	34.8 ± 0.02	0.65	22.6 ± 0.03	1.54	–	–	–	–	–	–	–
O=c1c(C=NNc2ccc(C(F)(F)F)cc2)coc2cc3oc(-c4ccccc4)cc3cc12 [Compound 3a, 2-Phenyl-6-[(4-trifluoromethylphenyl)hydrazonomethyl]furo[3,2-g]chromen-5-one]	–	26.3 ± 0.02	0.70	18.4 ± 0.01	1.43	–	–	–	–	–	–	–
O=c1c(C=NNc2ccc(C(F)(F)F)cc2)coc2cc3oc(-c4cccc(F)c4)cc3cc12 [Compound 3b, 2-(3-Fluorophenyl)-6-[(4-trifluoromethylphenyl)hydrazonomethyl]furo[3,2-g]chromen-5-one]	21.8 ± 0.02	11.2 ± 0.02	0.68	7.6 ± 0.03	1.47	0.58 ± 0.04	non-competitive	17.3 ± 0.03	6.1 ± 0.02	non-competitive	–	–
O=c1c(C=NNc2ccc(C(F)(F)F)cc2)coc2cc3oc(-c4ccc(F)cc4)cc3cc12 [Compound 3c, 2-(4-Fluorophenyl)-6-[(4-trifluoromethylphenyl)hydrazonomethyl]furo[3,2-g]chromen-5-one]	–	14.1 ± 0.01	1.49	21.2 ± 0.01	0.67	–	–	–	–	–	–	–
O=c1c(C=NNc2ccc(C(F)(F)F)cc2)coc2cc3oc(-c4cccc(Cl)c4)cc3cc12 [Compound 3d, 2-(3-Chlorophenyl)-6-[(4-trifluoromethylphenyl)hydrazonomethyl]furo[3,2-g]chromen-5-one]	20.9 ± 0.03	7.2 ± 0.03	2.56	18.3 ± 0.04	0.39	2.5 ± 0.01	non-competitive	32.8 ± 0.02	0.85 ± 0.01	non-competitive	–	–
O=c1c(C=NNc2ccc(C(F)(F)F)cc2)coc2cc3oc(-c4ccc(Cl)cc4)cc3cc12 [Compound 3e, 2-(4-Chlorophenyl)-6-[(4-trifluoromethylphenyl)hydrazonomethyl]furo[3,2-g]chromen-5-one]	–	24.6 ± 0.02	0.52	12.9 ± 0.02	1.91	–	–	–	–	–	–	–
COc1ccc(-c2cc3cc4c(=O)c(C=NNc5ccc(C(F)(F)F)cc5)coc4cc3o2)cc1 [Compound 3f, 2-(4-Methoxyphenyl)-6-[(4-trifluoromethylphenyl)hydrazonomethyl]furo[3,2-g]chromen-5-one]	23.9 ± 0.04	9.6 ± 0.05	0.56	5.4 ± 0.02	1.78	8.16 ± 0.02	non-competitive	25.3 ± 0.04	5.4 ± 0.04	competitive	0.013 ± 0.02	–
COc1cc(OC)cc(-c2cc3cc4c(=O)c(C=NNc5ccc(C(F)(F)F)cc5)coc4cc3o2)c1 [Compound 3g, 2-(3,5-Dimethoxyphenyl)-6-[(4-trifluoromethylphenyl)hydrazonomethyl]furo[3,2-g]chromen-5-one]	–	31.2 ± 0.04	1.12	34.9 ± 0.01	0.89	–	–	–	–	–	–	–
Cc1ccc(-c2cc3cc4c(=O)c(C=NNc5ccc(C(F)(F)F)cc5)coc4cc3o2)cc1 [Compound 3h, 2-(4-p-Tolyl)-6-[(4-trifluoromethylphenyl)hydrazonomethyl]furo[3,2-g]chromen-5-one]	–	35.4 ± 0.015	0.30	10.5 ± 0.03	3.37	–	–	–	–	–	–	–
O=c1c(C=NNc2ccc(C(F)(F)F)cc2)coc2cc3oc(C4=CCCCC4)cc3cc12 [Compound 3i, 2-(Cyclohex-1-en-1-yl)-6-((2-(4-(trifluoromethyl)phenyl)hydrazono)methyl)-5H-furo[3,2-g]chromen-5-one]	–	30.9 ± 0.02	0.96	29.8 ± 0.01	1.04	–	–	–	–	–	–	–
COc1cccc2c1C(=O)c1c(O)c3c(c(O)c1C2=O)C[C@@](O)(C(=O)CO)C[C@@H]3O[C@H]1C[C@H](N)[C@H](O)[C@H](C)O1 [doxorubicin, doxorubicin hydrochloride, reference compound]	–	–	–	–	–	–	–	–	–	–	–	1.59 ± 0.01
